This note sets out measurements from patent publication US7741341B2, “Benzimidazole-derivatives as factor Xa inhibitors” (sanofi-aventis Deutschland GmbH, priority 2003, dated 2010).

As usually defined, the Ki is a dissociation constant, usually derived from enzyme kinetics or from competition with a known ligand.

T1 sequence (P00742 235-488 limits assumed): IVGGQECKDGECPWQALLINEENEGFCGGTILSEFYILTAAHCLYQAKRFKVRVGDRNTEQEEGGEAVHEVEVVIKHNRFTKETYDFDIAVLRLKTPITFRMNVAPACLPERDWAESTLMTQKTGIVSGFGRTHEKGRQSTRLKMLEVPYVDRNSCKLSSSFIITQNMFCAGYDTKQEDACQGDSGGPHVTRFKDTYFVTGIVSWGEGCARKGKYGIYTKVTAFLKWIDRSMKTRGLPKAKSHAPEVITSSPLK
T1 sequence (P00742 41-179 partner limits assumed): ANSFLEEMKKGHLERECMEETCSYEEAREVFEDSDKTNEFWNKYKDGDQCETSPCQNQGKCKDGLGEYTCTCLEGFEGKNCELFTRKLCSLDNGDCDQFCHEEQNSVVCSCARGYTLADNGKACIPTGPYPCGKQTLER

The assay addresses T1, human factor Xa (Homo sapiens, UniProt P00742).
T1 construct: human factor Xa (Enzyme Research Laboratories, Inc; South Bend, Ind.); purchased Enzyme Research Laboratories, Inc; South Bend, Ind
The assay is described as follows: Factor Xa assay (chromogenic, substrate S-2765). The format is biochemical. Particulars: read-out: Ki(FXa). Put shortly: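 Purified human factor Xa (0.5 nM final) in TBS-PEG was preincubated 10 min with compound in DMSO-containing buffer. The reaction was started with chromogenic substrate S-2765 at 140 μM. IC50 was taken from the concentration series.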
For `CC(C)N1CCC(NC(=O)c2nc3cc(C(=O)OCCO)ccc3n2Cc2cc(-c3ccc(Cl)s3)on2)CC1` [Example 78, 1-[5-(5-Chloro-thiophen-2-yl)-isoxazol-3-ylmethyl]-2-(1-isopropyl-piperidin-4-ylcarbamoyl)-1H-benzoimidazole-5-carboxylic acid 2-hydroxy-ethyl ester], the inhibitory constant (Ki) was determined as 3.5 nM.
With `COC(=O)c1ccc2nc(C(=O)NC3CCN(C(C)C)CC3)n(Cc3cc(-c4ccc(Cl)s4)on3)c2c1` [Example 5b, 3-[5-(5-Chloro-thiophen-2-yl)-isoxazol-3-ylmethyl]-2-(1-isopropyl-piperidin-4-ylcarbamoyl)-3H-benzoimidazole-5-carboxylic acid methyl ester], the Ki is 175 nM.
Under `CCOC(=O)OC(C)OC(=O)c1ccc2c(c1)nc(C(=O)NC1CCN(C(C)C)CC1)n2CC(=O)Nc1ccc(Cl)cn1` (stereo not drawn) [Example 62, 1-[(5-Chloro-pyridin-2-ylcarbamoyl)-methyl]-2-(1-isopropyl-piperidin-4-ylcarbamoyl)-1H-benzoimidazole-5-carboxylic acid 1-ethoxycarbonyloxy-ethyl ester] stands 19 nM; under `CC(C)N1CCC(NC(=O)c2nc3c(C(=O)NCCO)scc3n2Cc2cc(-c3ccc(Cl)s3)on2)CC1` [Example 102, 3-[5-(5-Chloro-thiophen-2-yl)-isoxazol-3-ylmethyl]-3H-thieno[3,4-d]imidazole-2,6-dicarboxylic acid 6-[(2-hydroxy-ethyl)-amide]2-[(1-isopropyl-piperidin-4-yl)-amide]], 2.5 nM; under `CC(C)N1CCC(NC(=O)c2nc3c(C(=O)N4CCOCC4)cccc3n2CC(=O)Nc2ccc(Cl)cn2)CC1` [Example 73, 1-[(5-Chloro-pyridin-2-ylcarbamoyl)-methyl]-4-(morpholine-4-carbonyl)-1H-benzoimidazole-2-carboxylic acid (1-isopropyl-piperidin-4-yl)-amide], 19 nM.
Regarding `CC(C)N1CCC(NC(=O)c2nc3c(C(=O)NCCO)cccc3n2Cc2cc(-c3ccc(Cl)s3)on2)CC1` [Example 22, 1-[5-(5-Chloro-thiophen-2-yl)-isoxazol-3-ylmethyl]-1H-benzoimidazole-2,4-dicarboxylic acid 4-[(2-hydroxy-ethyl)-amide] 2-[(1-isopropyl-piperidin-4-yl)-amide]], the Ki stood at 0.7 nM.
Regarding `CC(C)N1CCC(NC(=O)c2nc3ccc(C(=O)O)cc3n2Cc2cc(-c3ccc(Cl)s3)on2)CC1` [Example 7, 3-[5-(5-Chloro-thiophen-2-yl)-isoxazol-3-ylmethyl]-2-(1-isopropyl-piperidin-4-ylcarbamoyl)-3H-benzoimidazole-5-carboxylic acid], the Ki is 16.5 nM.
As to `CCOC(=O)OC(C)OC(=O)c1cccc2c1nc(C(=O)NC1CCN(C(C)C)CC1)n2CC(=O)Nc1ccc(Cl)cn1` (stereo not drawn) [Example 33, 1-[(5-Chloro-pyridin-2-ylcarbamoyl)-methyl]-2-(1-isopropyl-piperidin-4-ylcarbamoyl)-1H-benzoimidazole-4-carboxylic acid 1-ethoxycarbonyloxy-ethyl ester], the Ki amounted to 12.5 nM.
As to `CC(C)N1CCC(NC(=O)c2nc3ccc(C(=O)OCCO)cc3n2Cc2cc(-c3ccc(Cl)s3)on2)CC1` [Example 65, 3-[5-(5-Chloro-thiophen-2-yl)-isoxazol-3-ylmethyl]-2-(1-isopropyl-piperidin-4-ylcarbamoyl)-3H-benzoimidazole-5-carboxylic acid 2-hydroxy-ethyl ester], the Ki was found to be 121 nM.
The value for `CC(C)N1CCC(NC(=O)c2nc3c(C(=O)OCCO)cccc3n2Cc2cc(-c3ccc(Cl)s3)on2)CC1` [Example 64, 1-[5-(5-Chloro-thiophen-2-yl)-isoxazol-3-ylmethyl]-2-(1-isopropyl-piperidin-4-ylcarbamoyl)-1H-benzoimidazole-4-carboxylic acid 2-hydroxy-ethyl ester] was 2 nM; that for `COC(=O)c1ccc2c(c1)nc(C(=O)NC1CCN(C(C)C)CC1)n2CC(=O)Nc1ccc(Cl)cn1` [Example 17a, 1-[(5-Chloro-pyridin-2-ylcarbamoyl)-methyl]-2-(1-isopropyl-piperidin-4-ylcarbamoyl)-1H-benzoimidazole-5-carboxylic acid methyl ester] was 19.5 nM; that for `O=C(Nc1ccc(-n2ccc(=O)cc2)cc1)c1nc2ccccc2n1Cc1cc(-c2ccc(Cl)s2)on1` [Example 37, 1-[5-(5-Chloro-thiophen-2-yl)-isoxazol-3-ylmethyl]-1H-benzoimidazole-2-carboxylic acid [4-(4-oxo-4H-pyridin-1-yl)-phenyl]-amide] was 12 nM.
As to `O=C(Nc1ccc(N2CCNCC2=O)cc1)c1nc2ccccc2n1Cc1cc(-c2ccc(Cl)s2)on1` [Example 50, 1-[5-(5-Chloro-thiophen-2-yl)-isoxazol-3-ylmethyl]-1H-benzoimidazole-2-carboxylic acid [4-(2-oxo-piperazin-1-yl)-phenyl]-amide], the Ki came out at 141 nM.
Turning to `CC(C)N1CCC(NC(=O)c2nc3c(OCCO)cccc3n2CC(=O)Nc2ccc(Cl)cn2)CC1` [Example 110, 1-[(5-Chloro-pyridin-2-ylcarbamoyl)-methyl]-4-(2-hydroxy-ethoxy)-1H-benzoimidazole-2-carboxylic acid (1-isopropyl-piperidin-4-yl)-amide], the Ki came to 4 nM.
Under `O=C(Cn1c(C(=O)Nc2ccc(N3CCOC3=O)cc2)nc2ccccc21)Nc1ccc(Cl)cn1` [Example 43, 1-[(5-Chloro-pyridin-2-ylcarbamoyl)-methyl]-1H-benzoimidazole-2-carboxylic acid [4-(2-oxo-oxazolidin-3-yl)-phenyl]-amide] stands 840 nM.
